Laboratory results as given in ChEMBL document CHEMBL3813683, “Design, synthesis and anti-cancer activity evaluation of podophyllotoxin-norcantharidin hybrid drugs” (Bioorg Med Chem Lett, 2016).
Calls of active or inactive are those of the source. No cut-off for these calls is given here.

Columns and labels:
MCF7 [1] = assay: Induction of apoptosis in human MCF7 cells after 24 hrs by Annexin V-FITC/propidium iodide staining-based flow cytometry; type: functional, cell-based
MCF7 [2] = assay: Cell cycle arrest in human MCF7 cells assessed as accumulation at G0/G1 phase at 2 uM after 24 hrs by propidium iodide staining-based flow cytometry (reference value: 64.68 to 80.32%); type: functional
MCF7 [3] = assay: Induction of apoptosis in human MCF7 cells assessed as late apoptotic cells at 1 uM after 24 hrs by Annexin V-FITC/propidium iodide staining-based flow cytometry (reference value: 5.92 to 9.33%); type: functional
MCF7 [4] = assay: Induction of apoptosis in human MCF7 cells assessed as necrotic cells at 8 uM after 24 hrs by Annexin V-FITC/propidium iodide staining-based flow cytometry (reference value: 0.021 to 3.8%); type: functional
MCF7 [5] = assay: Induction of apoptosis in human MCF7 cells assessed as viable cells at 8 uM after 24 hrs by Annexin V-FITC/propidium iodide staining-based flow cytometry (reference value: 80 to 91.6%); type: functional; settings: MCF7, 24 h, read-out: Activity
MCF7 [6] = assay: Downregulation of cyclin B1 in human MCF7 cells at 2 to 8 uM after 24 hrs by Western blot analysis; type: functional, cell-based
MCF7 [7] = assay: Induction of apoptosis in human MCF7 cells assessed as late apoptotic cells at 8 uM after 24 hrs by Annexin V-FITC/propidium iodide staining-based flow cytometry (reference value: 5.92 to 9.33%); type: functional
A549 = assay: Cytotoxicity against human A549 cells after 36 hrs by MTT assay; type: functional, cell-based; settings: A549, 36 h
MCF7 [8] = assay: Induction of apoptosis in human MCF7 cells assessed as late apoptotic cells at 4 uM after 24 hrs by Annexin V-FITC/propidium iodide staining-based flow cytometry (reference value: 5.92 to 9.33%); type: functional
MCF7 [9] = assay: Induction of apoptosis in human MCF7 cells assessed as viable cells at 4 uM after 24 hrs by Annexin V-FITC/propidium iodide staining-based flow cytometry (reference value: 80 to 91.6%); type: functional; settings: MCF7, 24 h, read-out: Activity
MCF7 [10] = assay: Cell cycle arrest in human MCF7 cells assessed as accumulation at S phase at 8 uM after 24 hrs by propidium iodide staining-based flow cytometry (reference value: 15.95 to 25.74%); type: functional
MCF7 [11] = assay: Induction of apoptosis in human MCF7 cells assessed as necrotic cells at 1 uM after 24 hrs by Annexin V-FITC/propidium iodide staining-based flow cytometry (reference value: 0.021 to 3.8%); type: functional
HeLa = assay: Cytotoxicity against human HeLa cells after 36 hrs by MTT assay; type: functional, cell-based
MCF7 [12] = assay: Cell cycle arrest in human MCF7 cells assessed as accumulation at G2/M phase at 8 uM after 24 hrs by propidium iodide staining-based flow cytometry (reference value: 3.73 to 10.75%); type: functional
MCF7 [13] = assay: Induction of apoptosis in human MCF7 cells assessed as early apoptotic cells at 2 uM after 24 hrs by Annexin V-FITC/propidium iodide staining-based flow cytometry (reference value: 2.45 to 6.92%); type: functional
MCF7 [14] = assay: Induction of apoptosis in human MCF7 cells assessed as viable cells at 2 uM after 24 hrs by Annexin V-FITC/propidium iodide staining-based flow cytometry (reference value: 80 to 91.6%); type: functional; settings: MCF7, 24 h, read-out: Activity
MCF7 [15] = assay: Cell cycle arrest in human MCF7 cells assessed as accumulation at G2/M phase at 2 uM after 24 hrs by propidium iodide staining-based flow cytometry (reference value: 3.73 to 10.75%); type: functional
MCF7 [16] = assay: Induction of apoptosis in human MCF7 cells assessed as necrotic cells at 2 uM after 24 hrs by Annexin V-FITC/propidium iodide staining-based flow cytometry (reference value: 0.021 to 3.8%); type: functional
MCF7 [17] = assay: Upregulation of CDK1 in human MCF7 cells at 2 to 8 uM after 24 hrs by Western blot analysis; type: functional, cell-based
Tubulin (Homo sapiens) [18] = molecular target: T1, Tubulin (Homo sapiens) (UniProt P68371+Q9H4B7+P0DPH7+P68366+Q13509+Q71U36+P04350+Q3ZCM7+P07437+P68363+Q9BQE3+Q6PEY2+Q13885+Q9BVA1+Q9BUF5); assay: Inhibition of tubulin polymerization in human MCF7 cells assessed as alteration of interphase microtubule network at 4 uM after 24 hrs by DAPI staining-based confocal microscopic analysis; type: cell-based
MCF7 [19] = assay: Induction of apoptosis in human MCF7 cells assessed as late apoptotic cells at 2 uM after 24 hrs by Annexin V-FITC/propidium iodide staining-based flow cytometry (reference value: 5.92 to 9.33%); type: functional
MCF7 [20] = assay: Cell cycle arrest in human MCF7 cells assessed as accumulation at G0/G1 phase at 4 uM after 24 hrs by propidium iodide staining-based flow cytometry (reference value: 64.68 to 80.32%); type: functional
MCF7 [21] = assay: Induction of apoptosis in human MCF7 cells assessed as viable cells at 1 uM after 24 hrs by Annexin V-FITC/propidium iodide staining-based flow cytometry (reference value: 80 to 91.6%); type: functional; settings: MCF7, 24 h, read-out: Activity
MCF7 [22] = assay: Cell cycle arrest in human MCF7 cells assessed as accumulation at S phase at 4 uM after 24 hrs by propidium iodide staining-based flow cytometry (reference value: 15.95 to 25.74%); type: functional
[23] = Cytotoxicity against HEK293T cells after 36 hrs by MTT assay; type: cell-based; settings: Homo sapiens, HEK-293T
MCF7 [24] = assay: Cell cycle arrest in human MCF7 cells assessed as accumulation at G0/G1 phase at 8 uM after 24 hrs by propidium iodide staining-based flow cytometry (reference value: 64.68 to 80.32%); type: functional
MCF7 [25] = assay: Induction of apoptosis in human MCF7 cells assessed as early apoptotic cells at 8 uM after 24 hrs by Annexin V-FITC/propidium iodide staining-based flow cytometry (reference value: 2.45 to 6.92%); type: functional
MCF7 [26] = assay: Cell cycle arrest in human MCF7 cells assessed as accumulation at G2/M phase at 4 uM after 24 hrs by propidium iodide staining-based flow cytometry (reference value: 3.73 to 10.75%); type: functional
MCF7 [27] = assay: Induction of apoptosis in human MCF7 cells assessed as increase in PARP cleavage at 8 uM after 24 hrs by Western blot analysis; type: functional, cell-based
MCF7 [28] = assay: Cell cycle arrest in human MCF7 cells assessed as accumulation at S phase at 2 uM after 24 hrs by propidium iodide staining-based flow cytometry (reference value: 15.95 to 25.74%); type: functional
MCF7 [29] = assay: Induction of apoptosis in human MCF7 cells assessed as early apoptotic cells at 1 uM after 24 hrs by Annexin V-FITC/propidium iodide staining-based flow cytometry (reference value: 2.45 to 6.92%); type: functional
MCF7 [30] = assay: Induction of apoptosis in human MCF7 cells assessed as early apoptotic cells at 4 uM after 24 hrs by Annexin V-FITC/propidium iodide staining-based flow cytometry (reference value: 2.45 to 6.92%); type: functional
MCF7 [31] = assay: Induction of apoptosis in human MCF7 cells assessed as necrotic cells at 4 uM after 24 hrs by Annexin V-FITC/propidium iodide staining-based flow cytometry (reference value: 0.021 to 3.8%); type: functional
MCF7 [32] = assay: Cytotoxicity against human MCF7 cells after 36 hrs by MTT assay; type: functional, cell-based; settings: MCF7, 36 h
Tubulin (Homo sapiens) [33] = molecular target: T1, Tubulin (Homo sapiens); assay: Inhibition of tubulin polymerization in human MCF7 cells assessed as alteration of interphase microtubule network at 2 uM after 24 hrs by DAPI staining-based confocal microscopic analysis; type: cell-based

For `COc1cc(C2c3cc4c(cc3[C@H](OC(=O)C(Cc3ccccc3)N3C(=O)C5C6CCC(O6)C5C3=O)[C@H]3COC(=O)[C@H]23)OCO4)cc(OC)c1OC` (stereo not given in full), the Activity (MCF7 [1]) was “Dose-dependent effect”, the Activity (MCF7 [2]) was 22.62% and the Activity (MCF7 [3]) was 14.2%. The Activity (MCF7 [4]) was 0.022%, the viability at 8 µM (MCF7 [5]) was 31.1% and the Activity (MCF7 [6]) was “Active”. The Activity (MCF7 [7]) was 6.97%, the IC50 (A549) was 7.82 µM and the Activity (MCF7 [8]) was 6.15%. It also gave a viability at 4 µM (MCF7 [9]) of 20.7%, an Activity (MCF7 [10]) of 32.22% and an Activity (MCF7 [11]) of 0.021%. It also gave an IC50 (HeLa) of 3.21 µM, an Activity (MCF7 [12]) of 59.61% and an Activity (MCF7 [13]) of 80.1%. It also gave a viability at 2 µM (MCF7 [14]) of 15.4%, an Activity (MCF7 [15]) of 32.33% and an Activity (MCF7 [16]) of 0%. The Activity (MCF7 [17]) was “inactive”, the inhibition (Tubulin (Homo sapiens) [18]) was “Active” and the Activity (MCF7 [19]) was 4.51%. The Activity (MCF7 [20]) was 17.24%, the viability at 1 µM (MCF7 [21]) was 35.4% and the Activity (MCF7 [22]) was 43.82%. For the same compound, the IC50 [23] was 54.4 µM, the Activity (MCF7 [24]) was 8.17% and the Activity (MCF7 [25]) was 61.9%. For the same compound, the Activity (MCF7 [26]) was 38.94%, the Activity (MCF7 [27]) was “Active” and the Activity (MCF7 [28]) was 45.05%. The Activity (MCF7 [29]) was 50.3%, the Activity (MCF7 [30]) was 73.1% and the Activity (MCF7 [31]) was 0.03%. For the same compound, the IC50 (MCF7 [32]) was 880 nM.
For `CC(=O)O[C@H]1C(=O)[C@@]2(C)[C@H]([C@H](OC(=O)c3ccccc3)[C@]3(O)C[C@H](OC(=O)[C@H](O)[C@@H](NC(=O)c4ccccc4)c4ccccc4)C(C)=C1C3(C)C)[C@]1(OC(C)=O)CO[C@@H]1C[C@@H]2O`, the inhibition (Tubulin (Homo sapiens) [33]) was “inactive”.
